Where a name gives a salt, the structure may show the parent alone.
Experiments:
CRF-2 = target: T1, CRF-2 (UniProt Q13324); test: CRF-2 receptor antagonism, HTRF cAMP assay in CHO cells; format: cell-based, human; settings: Biological data Table 2; inhibition of CRF induced cAMP response in CHO cells, EC50 concentration of CRF
T1 sequence (Q13324 1-411): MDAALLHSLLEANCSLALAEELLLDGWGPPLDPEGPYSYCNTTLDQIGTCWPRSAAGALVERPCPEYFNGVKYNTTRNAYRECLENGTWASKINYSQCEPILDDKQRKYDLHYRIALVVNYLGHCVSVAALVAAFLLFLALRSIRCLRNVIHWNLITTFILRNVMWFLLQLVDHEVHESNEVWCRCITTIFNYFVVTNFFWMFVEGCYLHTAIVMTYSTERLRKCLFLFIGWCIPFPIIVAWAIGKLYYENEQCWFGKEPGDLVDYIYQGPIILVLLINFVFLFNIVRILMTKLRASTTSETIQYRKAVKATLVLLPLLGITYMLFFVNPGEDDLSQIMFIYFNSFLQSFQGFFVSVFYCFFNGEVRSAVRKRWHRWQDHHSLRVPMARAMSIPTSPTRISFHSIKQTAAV
Protocol: (§1) The CRF-1 and CRF-2 receptor antagonistic activity of the agents of the invention has been determined in vitro in the following assay:
(§2) Chinese hamster ovary (CHO) cells expressing either the human or rat recombinant CRF-1 or human CRF-2α (Chen et al, Proc Natl Acad Sci USA 90, 8967-8971, 1993; Liaw et al, Endocrinology 137, 72-77, 1996) are propagated in Dulbecco's modified Eagle medium supplemented with 10% foetal calf serum, non-essential amino acids, 100 U/ml penicillin, 100 mg/l streptomycin and 1 g/l geneticin. CHO cells expressing the rat CRF-2β receptor (Wu et al, Endocrinology 148, 1675-1687, 2007) are propagated in HAM's-F12 Glutamax supplemented with 10% foetal calf serum, 100 IU/ml penicillin, 100 mg/l streptomycin, 600 μg/ml hygromycin, 10 μg/ml blasticidin and induced with 1 μg/ml of tetracyclin for 24 hours prior to experimentation. For cyclic AMP determinations the Homogeneous Time-Resolved Fluoresce (HTRF) cAMP dynamic 2 kit (Cisbio International, France) was used as per manufacturers' instructions. CHO cells, previously cryopreserved at 3×10^6 viable cells per ml of cell recovery media (Cat no. 12648-010, Invitrogen), were thawed, centrifuged for 7 mins at 1200 rpm and resuspended in serum free media to give a concentration of 0.5×10^6 cells per/ml. Compounds of the invention, prepared in DMSO, and subsequently diluted 50 fold in assay buffer (1× Hanks balanced salt solution, 0.2% (w/v) bovine serum albumin, 1.7 mM isobutylmethylxanthine and 10 mM Hepes, pH7.4) were then added onto the 384 well low volume black assay plate (Corning Inc, US, Cat. 3676). 2000 cells/well were then added to the assay plate further diluting the compound 2 fold and then the plate was incubated for 15 mins at room temperature. Following incubation, buffer containing a 5 times final concentration of agonist, typically r/h CRF is added to the plate and incubated for 30 min at room temperature. Finally, d2 dye labeled cAMP and cryptate labeled anti-cAMP antibody, both made in lysis buffer, are added to the plate followed by a settling period of 1 hour at room temperature. During the settling period cAMP produced by the cells competes with the d2 labelled cAMP for the anti-cAMP cryptate. The plate is read on the Pherastar (BMG, Germany). Increasing levels of endogenous cAMP produced by cells can be followed by a decrease of FRET fluorescent signal and vice versa. Values represented by a change in arbitrary fluorescence units are converted into cAMP concentrations by use of a standard curve, the reagents for which are supplied with the kit. Antagonist dose response curves (1 nM-31.6 μM) are constructed and tested in the presence of an EC50 concentration of CRF relevant to the receptor (hCRF-1=3 nM, hCRF-2α=2 nM, rCRF-1=1 nM and rCRF-2β=0.1 nM). IC50 values of antagonists are calculated by fitting the percent inhibition of CRF induced cAMP response by increasing concentrations of the antagonists. The fit is performed using the nonlinear logistic function of the Activitybase software package v 5.4.5.27 (IDBS, UK).

CRF-1 = target: T2, CRF-1 (UniProt P34998); test: CRF-1 receptor antagonism, HTRF cAMP assay in CHO cells; format: cell-based, human; settings: inhibition of CRF induced cAMP response in CHO cells, EC50 concentration of CRF
T2 sequence (P34998 1-415): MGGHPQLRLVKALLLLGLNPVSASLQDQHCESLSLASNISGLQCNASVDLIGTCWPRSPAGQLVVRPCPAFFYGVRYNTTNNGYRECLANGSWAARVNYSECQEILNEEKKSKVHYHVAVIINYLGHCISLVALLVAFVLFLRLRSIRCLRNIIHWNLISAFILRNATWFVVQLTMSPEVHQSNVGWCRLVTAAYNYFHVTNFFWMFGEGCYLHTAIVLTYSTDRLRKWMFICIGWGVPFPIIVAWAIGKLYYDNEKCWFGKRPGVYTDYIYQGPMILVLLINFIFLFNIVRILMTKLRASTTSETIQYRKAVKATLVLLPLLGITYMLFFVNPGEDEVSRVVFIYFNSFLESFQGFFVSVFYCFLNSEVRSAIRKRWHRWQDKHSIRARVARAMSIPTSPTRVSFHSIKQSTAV
Protocol: as §1, §2

Structure (SMILES) | IC50 (CRF-2) [nM] | IC50 (CRF-1; Biological data Table 2) [nM] | IC50 (CRF-1; Biological data Table 1) [nM]
Cc1ncc(Cl)cc1C(=O)N[C@H]1CC[C@H](CN2C(=O)C(C)(F)c3ccc(Cl)cc32)CC1 (single isomer, unassigned) [Example 2.33, Trans-5-Chloro-N-[4-(-6-chloro-3-fluoro-3-methyl-2-oxo-2,3-dihydro-indol-1-ylmethyl)-cyclohexyl]-2-methyl-nicotinamide] | 876 | 44 | –
O=C(N[C@H]1CC[C@H](CN2C(=O)Cc3ccc(Cl)cc32)CC1)c1cc(C(F)(F)F)ccc1Cl [Example 1.1, Trans-2-Chloro-N-[4-(6-chloro-2-oxo-2,3-dihydro-indol-1-ylmethyl)-cyclohexyl]-5-trifluoromethyl-benzamide] | – | – | 65
O=C(N[C@H]1CC[C@H](CN2C(=O)C(F)(F)c3ccc(Cl)cc32)CC1)c1cc(C(F)(F)F)ccc1Cl [Example 2.1, Trans-2-chloro-N-[4-(6-chloro-3,3-difluoro-2-oxo-2,3-dihydro-indol-1-ylmethyl)-cyclohexyl]-5-trifluoromethyl-benzamide] | – | – | 149
Cc1ncc(Cl)cc1C(=O)N[C@H]1CC[C@H](CN2C(=O)C(C)(C)c3cccnc32)CC1 [Example 2.3, Trans-5-chloro-N-[4-(3,3-dimethyl-2-oxo-2,3-dihydro-pyrrolo[2,3-b]pyridin-1-ylmethyl)-cyclohexyl]-2-methyl-nicotinamide] | – | – | 242
O=C(N[C@H]1CC[C@H](CN2C(=O)Cc3cccnc32)CC1)c1cc(C(F)(F)F)ccc1Cl [Example 2.4, Trans-2-chloro-N-[4-(2-oxo-2,3-dihydro-pyrrolo[2,3-b]pyridin-1-ylmethyl)-cyclohexyl]-5-trifluoromethyl-benzamide] | – | – | 900
O=C(N[C@H]1CC[C@H](CN2C(=O)C3(CC3)c3cc(F)ccc32)CC1)c1cc(C(F)(F)F)ccc1Cl [Example 2.5, Trans-2-chloro-N-{-4-((5′-fluoro-2′-oxospiro[cyclopropane-1,3′-indoline]-1′-yl)methyl)cyclohexyl}-5-(trifluoromethyl)benzamide] | – | – | 9
COc1ccc2c(c1)C(C)(C)C(=O)N2C[C@H]1CC[C@H](NC(=O)c2cc(C(F)(F)F)ccc2Cl)CC1 [Example 2.7, Trans-2-Chloro-N-[4-(5-methoxy-3,3-dimethyl-2-oxo-2,3-dihydro-indol-1-ylmethyl)-cyclohexyl]-5-trifluoromethyl-benzamide] | – | – | 166
COc1cc2c(cn1)C(C)(C)C(=O)N2C[C@H]1CC[C@H](NC(=O)c2cc(C(F)(F)F)ccc2Cl)CC1 [Example 2.8, Trans-2-Chloro-N-[4-(6-methoxy-3,3-dimethyl-2-oxo-2,3-dihydro-pyrrolo[3,2-c]pyridin-1-ylmethyl)-cyclohexyl]-5-trifluoromethyl-benzamide] | – | – | 347
C[C@]1(F)C(=O)N(C[C@H]2CC[C@H](NC(=O)c3cc(C(F)(F)F)ccc3Cl)CC2)c2ccccc21 [Example 2.9, Trans-2-Chloro-N-[4-((R)-3-fluoro-3-methyl-2-oxo-2,3-dihydro-indol-1-ylmethyl)-cyclohexyl]-5-trifluoromethyl-benzamide] | – | – | 16
C[C@@]1(F)C(=O)N(C[C@H]2CC[C@H](NC(=O)c3cc(C(F)(F)F)ccc3Cl)CC2)c2ccccc21 [Example 2.10, Trans-2-Chloro-N-[4-((S)-3-fluoro-3-methyl-2-oxo-2,3-dihydro-indol-1-ylmethyl)-cyclohexyl]-5-trifluoromethyl-benzamide] | – | – | 201
CCn1c(=O)n(C[C@H]2CC[C@H](NC(=O)c3cc(Cl)cnc3C)CC2)c2ccncc21 [Example 2.42, Trans-5-Chloro-N-[4-(3-ethyl-2-oxo-2,3-dihydro-imidazo[4,5-c]pyridin-1-ylmethyl)-cyclohexyl]-2-methyl-nicotinamide] | – | – | 275
Cc1ncc(Cl)cc1C(=O)N[C@H]1CC[C@H](Cn2c(=O)n(C)c3nccc(C)c32)CC1 [Example 2.43, Trans-5-Chloro-N-[4-(3,7-dimethyl-2-oxo-2,3-dihydro-imidazo[4,5-b]pyridin-1-ylmethyl)-cyclohexyl]-2-methyl-nicotinamide] | – | – | 416
Cc1ncc(C(F)(F)F)cc1C(=O)N[C@H]1CC[C@H](CN2C(=O)C(C)(C)c3ccccc32)CC1 [Example 2.52, Trans-N-[4-(3,3-Dimethyl-2-oxo-2,3-dihydro-indol-1-ylmethyl)-cyclohexyl]-2-methyl-5-trifluoromethyl-nicotinamide] | – | – | 612
O=C(N[C@H]1CC[C@H](CN2C(=O)Cc3cc(Cl)ccc32)CC1)c1cc(C(F)(F)F)ccc1Cl [Example 3.1, Trans-2-Chloro-N-[4-(5-chloro-2-oxo-2,3-dihydro-indol-1-ylmethyl)-cyclohexyl]-5-trifluoromethyl-benzamide] | – | – | 205
CC1(C)C(=O)N(C[C@H]2CC[C@H](NC(=O)c3cc(C(F)(F)F)ccc3Cl)CC2)c2ccc(F)cc21 [Example 3.3, Trans-2-Chloro-N-[4-(5-fluoro-3,3-dimethyl-2-oxo-2,3-dihydro-indol-1-ylmethyl)-cyclohexyl]-5-trifluoromethyl-benzamide] | – | – | 28
Cn1c(=O)n(C[C@H]2CC[C@H](NC(=O)c3cc(C(F)(F)F)ccc3Cl)CC2)c2ncccc21 [Example 3.6, Trans-2-Chloro-N-[4-(1-methyl-2-oxo-1,2-dihydro-imidazo[4,5-b]pyridin-3-ylmethyl)-cyclohexyl]-5-trifluoromethyl-benzamide] | – | – | 145
O=C(N[C@H]1CC[C@H](Cn2c(=O)[nH]c3ccccc32)CC1)c1cc(C(F)(F)F)ccc1Cl [Example 3.7, Trans-2-Chloro-N-[4-(2-oxo-2,3-dihydro-bcnzoimidazol-1-ylmethyl)-cyclohexyl]-5-trifluoromethyl-benzamide] | – | – | 91
Cn1c(=O)n(C[C@H]2CC[C@H](NC(=O)c3cc(C(F)(F)F)ccc3Cl)CC2)c2ccccc21 [Example 3.8, Trans-2-Chloro-N-[4-(3-methyl-2-oxo-2,3-dihydro-benzoimidazol-1-ylmethyl)-cyclohexyl]-5-trifluoromethyl-benzamide] | – | – | 37
Cn1c(=O)n(C[C@H]2CC[C@H](NC(=O)c3cc(Cl)ccc3Cl)CC2)c2ccccc21 [Example 4.2, Trans-2,5-Dichloro-N-[4-(3-methyl-2-oxo-2,3-dihydro-benzoimidazol-1-ylmethyl)-cyclohexyl]-benzamide trifluoroacetate] | – | – | 118
CC1(C)C(=O)N(C[C@H]2CC[C@H](NC(=O)c3cc(Cl)ccc3Cl)CC2)c2ccccc21 [Example 5.2, Trans-2,5-Dichloro-N-[4-(3,3-dimethyl-2-oxo-2,3-dihydro-indol-1-ylmethyl)-cyclohexyl]-benzamide] | – | – | 126

Source: patent US20110201629A1, “CYCLOHEXYL AMIDE DERIVATIVES AS CRF RECEPTOR ANTAGONISTS” (priority 2010, published 2011)
